Experimental data from PubChem BioAssay AID248 (DTP/NCI, 2004).
Where “and” joins values, the source holds several entries; their conditions need not be identical. Identical values can stand only once. Inconclusive results and toxic doses are left out. No stated cut-off is given here; in the data, active means T/C of 150% or more; inactive means T/C below 125%.

Test system: L1210 leukemia ip in BDF1 mice, survival T/C
Test: NCI In Vivo Anticancer Drug Screen. Data for tumor model L1210 Leukemia (intraperitoneal) in B6D2F1 (BDF1) mice
Details: endpoint: mean survival time, higher = longer survival
Procedure, shortened: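 Tumor cells were implanted, animals were treated, and survival was followed. The result divides the treated measurement by the vehicle-control measurement.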

[1] = dose: 100.0 mg/kg/injection, schedule: Q01DX001 (ip), vehicle: Klucel (hydroxypropylcellulose) (HPC)
[2] = dose: 100.0 mg/kg/injection, schedule: Q01DX009 (ip), vehicle: saline
[3] = dose: 200.0 mg/kg/injection, schedule: Q01DX009 (ip), vehicle: saline
[4] = dose: 100.0 mg/kg/injection, schedule: Q04DX003 (ip), vehicle: saline with Tween-80
[5] = dose: 400.0 mg/kg/injection, schedule: Q04DX003 (ip), vehicle: saline with Tween-80
[6] = dose: 100.0 mg/kg/injection, schedule: Q04DX002 (ip), vehicle: Klucel (hydroxypropylcellulose) (HPC)
[7] = dose: 200.0 mg/kg/injection, schedule: Q04DX002 (ip), vehicle: Klucel (hydroxypropylcellulose) (HPC)
[8] = dose: 400.0 mg/kg/injection, schedule: Q04DX002 (ip), vehicle: Klucel (hydroxypropylcellulose) (HPC)
[9] = dose: 25.0 mg/kg/injection, schedule: Q04DX002 (ip), vehicle: saline with Tween-80
[10] = dose: 50.0 mg/kg/injection, schedule: Q04DX002 (ip), vehicle: saline with Tween-80
[11] = dose: 100.0 mg/kg/injection, schedule: Q01DX009 (ip), vehicle: saline with Tween-80
[12] = dose: 200.0 mg/kg/injection, schedule: Q01DX009 (ip), vehicle: saline with Tween-80
[13] = dose: 400.0 mg/kg/injection, schedule: Q01DX009 (ip), vehicle: saline with Tween-80
[14] = dose: 100.0 mg/kg/injection, schedule: Q01DX009 (ip), vehicle: Klucel (hydroxypropylcellulose) (HPC)
[15] = dose: 200.0 mg/kg/injection, schedule: Q01DX009 (ip), vehicle: Klucel (hydroxypropylcellulose) (HPC)
[16] = dose: 400.0 mg/kg/injection, schedule: Q01DX009 (ip), vehicle: Klucel (hydroxypropylcellulose) (HPC)
[17] = dose: 200.0 mg/kg/injection, schedule: Q04DX003 (ip), vehicle: saline with Tween-80
[18] = dose: 200.0 mg/kg/injection, schedule: Q01DX001 (ip), vehicle: Klucel (hydroxypropylcellulose) (HPC)
[19] = dose: 400.0 mg/kg/injection, schedule: Q01DX001 (ip), vehicle: Klucel (hydroxypropylcellulose) (HPC)
[20] = dose: 100.0 mg/kg/injection, schedule: Q04DX003 (ip), vehicle: Klucel (hydroxypropylcellulose) (HPC)
[21] = dose: 200.0 mg/kg/injection, schedule: Q04DX003 (ip), vehicle: Klucel (hydroxypropylcellulose) (HPC)
[22] = dose: 400.0 mg/kg/injection, schedule: Q04DX003 (ip), vehicle: Klucel (hydroxypropylcellulose) (HPC)

Measured: T/C

Nc1nc(N)c(-c2ccc(Cl)c(Cl)c2)c(COc2ccc(CNS(=O)(=O)c3ccc(S(=O)(=O)F)cc3)cc2Cl)n1
inactive: dose: 25.0 mg/kg/injection, schedule: Q01DX001 (ip), vehicle: Klucel (hydroxypropylcellulose) (HPC) 94 % of control | dose: 50.0 mg/kg/injection, schedule: Q01DX001 (ip), vehicle: Klucel (hydroxypropylcellulose) (HPC) 94 % of control | [1] 96 % of control

O=C(O)CCNCCO
inactive: [2] 98 % of control | [3] 98 % of control

Clc1ccc2c(c1)C1=NCCCN1c1cc(Cl)ccc1-2
inactive: dose: 2.5 mg/kg/injection, schedule: Q01DX009 (ip), vehicle: saline 105 % of control | dose: 2.5 mg/kg/injection, schedule: Q04DX002 (ip), vehicle: saline 100 % of control | dose: 2.5 mg/kg/injection, schedule: Q04DX003 (ip), vehicle: Klucel (hydroxypropylcellulose) (HPC) 102 % of control | dose: 5.0 mg/kg/injection, schedule: Q01DX009 (ip), vehicle: saline 97 % of control | dose: 5.0 mg/kg/injection, schedule: Q04DX002 (ip), vehicle: saline 96 % of control | dose: 5.0 mg/kg/injection, schedule: Q04DX003 (ip), vehicle: Klucel (hydroxypropylcellulose) (HPC) 104 % of control | dose: 10.0 mg/kg/injection, schedule: Q01DX009 (ip), vehicle: saline 97 % of control | dose: 10.0 mg/kg/injection, schedule: Q04DX002 (ip), vehicle: saline 111 % of control | dose: 10.0 mg/kg/injection, schedule: Q04DX003 (ip), vehicle: Klucel (hydroxypropylcellulose) (HPC) 104 % of control | dose: 20.0 mg/kg/injection, schedule: Q04DX003 (ip), vehicle: Klucel (hydroxypropylcellulose) (HPC) 91 % of control

OC(CC(O)(C(F)(F)F)C(F)(F)F)c1cccc(C(F)(F)F)c1 (centres undefined)
inactive: dose: 100.0 mg/kg/injection, schedule: Q01DX009 (ip), vehicle: other 96 % of control | dose: 100.0 mg/kg/injection, schedule: Q04DX003 (ip), vehicle: other 101 % of control | dose: 200.0 mg/kg/injection, schedule: Q01DX009 (ip), vehicle: other 96 % of control | dose: 400.0 mg/kg/injection, schedule: Q01DX009 (ip), vehicle: other 96 % of control | dose: 400.0 mg/kg/injection, schedule: Q04DX003 (ip), vehicle: other 92 % of control

c1ccc(CCN2COc3c(ccc4cccnc34)C2)cc1
inactive: [4] 102 % of control | [5] 90 % of control

Cc1ccccc1Nc1nc(N)nc2nc(N)c(C(N)=O)nc12
inactive: [6] 97 % of control | [7] 92 % of control | [8] 92 % of control

N=C(N)SCc1cccc([N+](=O)[O-])c1
inactive: [9] 102 % of control | [10] 102 % of control

O=C(NC(=S)NNC(=S)NNc1ccccc1)c1ccccc1
inactive: dose: 12.5 mg/kg/injection, schedule: Q04DX002 (ip), vehicle: saline with Tween-80 101 % of control | dose: 25.0 mg/kg/injection, schedule: Q01DX009 (ip), vehicle: saline with Tween-80 102 % of control | [9] 107 % of control and 90 % of control | dose: 50.0 mg/kg/injection, schedule: Q01DX009 (ip), vehicle: saline with Tween-80 115 % of control | [10] 108 % of control | dose: 100.0 mg/kg/injection, schedule: Q04DX002 (ip), vehicle: saline with Tween-80 96 % of control and 101 % of control and 110 % of control | dose: 200.0 mg/kg/injection, schedule: Q04DX002 (ip), vehicle: saline with Tween-80 108 % of control

O=S(=O)(Nc1ccc2c3c(cccc13)CC2)c1ccccc1
inactive: [11] 92 % of control | [12] 94 % of control | [13] 103 % of control

O=C(N/N=C/c1ccc(O)cc1)c1ccccc1NC(=O)C1CC1
inactive: [14] 104 % of control | [15] 89 % of control | [16] 93 % of control

C#CCOP(=O)(OCC)OCC
inactive: [2] 105 % of control | [3] 103 % of control

BrP(Nc1cccc(NP(Br)(c2ccccc2)(c2ccccc2)c2ccccc2)c1)(c1ccccc1)(c1ccccc1)c1ccccc1
inactive: dose: 10.0 mg/kg/injection, schedule: Q01DX001 (ip), vehicle: saline 99 % of control | dose: 20.0 mg/kg/injection, schedule: Q01DX001 (ip), vehicle: saline 99 % of control

CCc1c(C)nc(N)[nH]c1=O
inactive: [4] 106 % of control | [17] 106 % of control

Nc1ccccc1-c1nc(N)c2ccccc2n1
inactive: [1] 102 % of control | [18] 102 % of control | [19] 108 % of control

O=C(COc1ccc(Cl)cc1)Nc1cc(Cl)ccc1Cl
inactive: [1] 113 % of control | [20] 88 % of control | [18] 95 % of control | [21] 88 % of control | [19] 97 % of control | [22] 90 % of control

COc1ccc(C2OC23CCCc2ccccc2C3=O)cc1 (centres undefined)
inactive: [20] 95 % of control | [21] 97 % of control | [22] 89 % of control

O=C(O)c1ccc(NCc2cc(=O)[nH]c(=O)[nH]2)cc1
inactive: dose: 100.0 mg/kg/injection, schedule: Q04DX003 (ip), vehicle: saline 101 % of control | dose: 200.0 mg/kg/injection, schedule: Q04DX003 (ip), vehicle: saline 95 % of control | dose: 400.0 mg/kg/injection, schedule: Q04DX003 (ip), vehicle: saline 103 % of control

Cc1ccc(S(=O)(=O)OCC2C(COS(=O)(=O)c3ccc(C)cc3)C3C=CC2C32CC2)cc1 (centres undefined)
inactive: [6] 105 % of control | [7] 110 % of control | [8] 102 % of control

COC(=O)CCC(NC(=O)CCCNC(=O)OCc1ccccc1)C(=O)OC (centres undefined)
inactive: [1] 96 % of control | dose: 100.0 mg/kg/injection, schedule: Q01DX001 (ip), vehicle: other 97 % of control | [14] 100 % of control | [20] 94 % of control | [18] 98 % of control | dose: 200.0 mg/kg/injection, schedule: Q01DX001 (ip), vehicle: other 100 % of control | [15] 97 % of control | [21] 89 % of control | [19] 89 % of control | dose: 400.0 mg/kg/injection, schedule: Q01DX001 (ip), vehicle: other 103 % of control | [16] 100 % of control | [22] 86 % of control

NCCCC1C2CCC(C2)C1CN (centres undefined)
inactive: dose: 100.0 mg/kg/injection, schedule: Q04DX002 (ip), vehicle: alcohol 98 % of control

Nc1ccc(S(N)(=O)=O)cc1
inactive: [20] 114 % of control | [21] 95 % of control | [22] 92 % of control

Cc1ccc(N(O)C(=O)Nc2ccccc2)cc1
inactive: dose: 50.0 mg/kg/injection, schedule: Q01DX015 (ip), vehicle: methylcellulose (MC) 102 % of control | dose: 100.0 mg/kg/injection, schedule: Q01DX015 (ip), vehicle: methylcellulose (MC) 91 % of control | dose: 200.0 mg/kg/injection, schedule: Q01DX015 (ip), vehicle: methylcellulose (MC) 96 % of control

O=C1CCSC(=S)N1c1ccc(Cl)c(Cl)c1
inactive: dose: 25.0 mg/kg/injection, schedule: Q04DX003 (ip), vehicle: saline with Tween-80 101 % of control | dose: 50.0 mg/kg/injection, schedule: Q04DX003 (ip), vehicle: saline with Tween-80 101 % of control | [4] 104 % of control

Cc1ccc(C2CCCN(C)O2)cc1 (centres undefined)
inactive: dose: 100.0 mg/kg/injection, schedule: Q01DX001 (ip), vehicle: saline 102 % of control | dose: 200.0 mg/kg/injection, schedule: Q01DX001 (ip), vehicle: saline 101 % of control | dose: 400.0 mg/kg/injection, schedule: Q01DX001 (ip), vehicle: saline 93 % of control

Cc1ccc(Cl)cc1NC(=O)COc1ccc(Cl)cc1Cl
inactive: [11] 96 % of control | [4] 107 % of control | [12] 93 % of control | [17] 93 % of control | [13] 93 % of control | [5] 98 % of control

CN(Cc1ccc(Cl)cc1)C(=S)Nc1ccccc1
inactive: [6] 114 % of control | [7] 92 % of control | [8] 96 % of control

CC(O)c1cc(Cl)ccc1Cl (centres undefined)
inactive: [11] 87 % of control | [4] 101 % of control and 107 % of control | [12] 103 % of control | [17] 107 % of control | [13] 92 % of control | [5] 98 % of control and 92 % of control
